What was measured:
Test in all cases: KINOMEscan
Assay type in all cases: binding
Settings in all cases: read-out: % control activity remaining
[1] = biological target: T1, INSRR (Homo sapiens, UniProt P14616)
T1 construct: purchased Eurofins DiscoverX KINOMEscan

[2] = biological target: T2, p38-gamma (Homo sapiens, UniProt P53778)
T2 construct: purchased Eurofins DiscoverX KINOMEscan
T2 sequence (P53778 1-367): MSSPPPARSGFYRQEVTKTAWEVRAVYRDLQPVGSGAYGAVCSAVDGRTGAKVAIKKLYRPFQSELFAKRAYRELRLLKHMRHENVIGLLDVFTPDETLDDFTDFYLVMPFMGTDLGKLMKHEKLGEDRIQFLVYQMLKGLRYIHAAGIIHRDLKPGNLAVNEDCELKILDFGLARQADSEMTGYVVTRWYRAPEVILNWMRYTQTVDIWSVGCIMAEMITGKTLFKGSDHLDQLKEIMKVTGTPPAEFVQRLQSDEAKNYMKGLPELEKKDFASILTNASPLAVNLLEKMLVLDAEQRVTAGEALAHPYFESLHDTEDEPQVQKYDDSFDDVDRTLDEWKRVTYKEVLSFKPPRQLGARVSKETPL

[3] = biological target: T3, YANK2 (Homo sapiens, UniProt Q9NY57)
T3 construct: purchased Eurofins DiscoverX KINOMEscan

[4] = biological target: T4, SIK (Homo sapiens, UniProt P57059)
T4 construct: purchased Eurofins DiscoverX KINOMEscan

[5] = biological target: T5, GSK3B (Homo sapiens, UniProt P49841)
T5 construct: purchased Eurofins DiscoverX KINOMEscan

[6] = biological target: T6, EPHB4 (Homo sapiens, UniProt P54760)
T6 construct: purchased Eurofins DiscoverX KINOMEscan
T6 sequence (P54760 16-987): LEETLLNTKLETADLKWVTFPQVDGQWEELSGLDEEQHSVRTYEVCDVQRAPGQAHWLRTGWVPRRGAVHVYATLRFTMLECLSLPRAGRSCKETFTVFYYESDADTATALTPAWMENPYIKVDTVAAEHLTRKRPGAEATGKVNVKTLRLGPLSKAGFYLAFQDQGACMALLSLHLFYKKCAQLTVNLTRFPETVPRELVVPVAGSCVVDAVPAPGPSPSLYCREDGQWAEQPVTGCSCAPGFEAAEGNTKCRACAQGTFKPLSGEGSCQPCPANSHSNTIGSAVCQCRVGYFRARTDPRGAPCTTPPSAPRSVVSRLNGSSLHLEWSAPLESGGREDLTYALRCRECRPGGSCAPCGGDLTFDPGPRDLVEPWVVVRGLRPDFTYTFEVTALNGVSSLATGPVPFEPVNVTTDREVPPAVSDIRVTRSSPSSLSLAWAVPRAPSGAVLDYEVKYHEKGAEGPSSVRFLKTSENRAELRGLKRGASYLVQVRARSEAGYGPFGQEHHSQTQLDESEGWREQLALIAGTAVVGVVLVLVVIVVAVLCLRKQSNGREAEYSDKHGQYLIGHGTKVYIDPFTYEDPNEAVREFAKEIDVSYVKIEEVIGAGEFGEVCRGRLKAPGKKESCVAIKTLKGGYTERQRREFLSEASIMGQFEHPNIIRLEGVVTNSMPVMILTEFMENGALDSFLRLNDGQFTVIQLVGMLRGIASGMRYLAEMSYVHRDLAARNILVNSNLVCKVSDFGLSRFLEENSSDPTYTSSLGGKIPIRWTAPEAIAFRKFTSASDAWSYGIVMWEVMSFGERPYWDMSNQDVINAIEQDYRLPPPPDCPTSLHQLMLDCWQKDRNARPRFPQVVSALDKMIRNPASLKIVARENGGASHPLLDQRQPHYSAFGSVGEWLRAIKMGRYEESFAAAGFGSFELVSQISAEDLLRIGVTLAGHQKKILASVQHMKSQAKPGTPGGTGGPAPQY

[7] = biological target: T7, PHKG2 (Homo sapiens, UniProt P15735)
T7 construct: purchased Eurofins DiscoverX KINOMEscan
T7 sequence (P15735 1-406): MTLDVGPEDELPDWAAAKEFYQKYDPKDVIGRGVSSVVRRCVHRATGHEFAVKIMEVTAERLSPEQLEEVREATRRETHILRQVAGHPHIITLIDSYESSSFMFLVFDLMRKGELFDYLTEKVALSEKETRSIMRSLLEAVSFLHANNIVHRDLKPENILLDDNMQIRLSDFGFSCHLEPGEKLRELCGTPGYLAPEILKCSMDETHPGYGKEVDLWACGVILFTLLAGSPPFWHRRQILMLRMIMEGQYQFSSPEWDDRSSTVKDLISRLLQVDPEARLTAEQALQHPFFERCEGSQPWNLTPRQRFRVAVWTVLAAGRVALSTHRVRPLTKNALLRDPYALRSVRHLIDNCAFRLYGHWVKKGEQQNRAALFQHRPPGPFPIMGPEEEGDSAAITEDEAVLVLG

[8] = biological target: T8, PIM1 (Homo sapiens, UniProt P11309)
T8 construct: purchased Eurofins DiscoverX KINOMEscan

[9] = biological target: T9, ACVR2A (Homo sapiens, UniProt P27037)
T9 construct: purchased Eurofins DiscoverX KINOMEscan
T9 sequence (P27037 20-513): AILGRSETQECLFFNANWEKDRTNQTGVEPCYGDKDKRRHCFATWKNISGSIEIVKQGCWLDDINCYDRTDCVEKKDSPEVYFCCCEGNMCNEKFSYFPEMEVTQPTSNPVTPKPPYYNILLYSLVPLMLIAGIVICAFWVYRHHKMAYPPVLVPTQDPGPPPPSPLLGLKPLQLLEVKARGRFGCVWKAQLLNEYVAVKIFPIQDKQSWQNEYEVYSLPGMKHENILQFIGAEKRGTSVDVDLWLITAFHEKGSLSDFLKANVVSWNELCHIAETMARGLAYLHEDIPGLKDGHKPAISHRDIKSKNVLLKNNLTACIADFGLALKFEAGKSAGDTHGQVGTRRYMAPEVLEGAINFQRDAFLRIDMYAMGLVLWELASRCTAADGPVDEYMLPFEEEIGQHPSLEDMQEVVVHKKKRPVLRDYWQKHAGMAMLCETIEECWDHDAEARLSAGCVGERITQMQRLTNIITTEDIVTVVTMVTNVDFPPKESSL

T3 sequence (Q9NY57 whole entry): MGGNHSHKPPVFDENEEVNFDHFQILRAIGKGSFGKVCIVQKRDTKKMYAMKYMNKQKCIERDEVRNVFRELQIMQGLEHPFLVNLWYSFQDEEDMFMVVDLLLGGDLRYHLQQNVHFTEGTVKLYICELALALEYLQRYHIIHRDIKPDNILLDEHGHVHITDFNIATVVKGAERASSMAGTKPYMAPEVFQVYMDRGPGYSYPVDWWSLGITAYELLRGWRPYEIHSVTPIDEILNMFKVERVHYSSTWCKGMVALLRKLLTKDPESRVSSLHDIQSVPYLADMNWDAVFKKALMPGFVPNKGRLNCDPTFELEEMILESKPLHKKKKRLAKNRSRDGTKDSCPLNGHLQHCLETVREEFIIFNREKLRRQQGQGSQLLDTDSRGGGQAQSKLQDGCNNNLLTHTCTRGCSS
T4 sequence (P57059 whole entry): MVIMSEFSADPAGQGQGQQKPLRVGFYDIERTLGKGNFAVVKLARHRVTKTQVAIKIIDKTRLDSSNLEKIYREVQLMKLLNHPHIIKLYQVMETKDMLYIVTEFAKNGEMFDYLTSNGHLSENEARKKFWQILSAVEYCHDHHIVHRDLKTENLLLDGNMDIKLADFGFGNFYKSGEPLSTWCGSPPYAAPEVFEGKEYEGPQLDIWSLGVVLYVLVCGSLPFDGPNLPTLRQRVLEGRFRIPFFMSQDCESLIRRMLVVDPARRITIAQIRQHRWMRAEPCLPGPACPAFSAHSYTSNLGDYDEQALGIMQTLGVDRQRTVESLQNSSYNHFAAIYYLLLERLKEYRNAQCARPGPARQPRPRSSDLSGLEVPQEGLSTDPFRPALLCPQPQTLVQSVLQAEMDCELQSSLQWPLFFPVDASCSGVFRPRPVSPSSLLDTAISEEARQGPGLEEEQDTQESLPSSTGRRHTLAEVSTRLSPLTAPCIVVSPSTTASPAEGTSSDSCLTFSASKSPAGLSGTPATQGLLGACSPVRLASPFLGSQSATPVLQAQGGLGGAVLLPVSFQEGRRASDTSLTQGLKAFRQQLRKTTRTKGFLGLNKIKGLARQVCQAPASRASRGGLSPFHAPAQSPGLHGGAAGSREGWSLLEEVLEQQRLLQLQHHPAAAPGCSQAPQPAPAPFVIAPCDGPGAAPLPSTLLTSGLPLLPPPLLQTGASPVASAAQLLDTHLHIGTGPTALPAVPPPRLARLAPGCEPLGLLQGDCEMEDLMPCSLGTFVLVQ
T1 sequence (P14616 27-1297): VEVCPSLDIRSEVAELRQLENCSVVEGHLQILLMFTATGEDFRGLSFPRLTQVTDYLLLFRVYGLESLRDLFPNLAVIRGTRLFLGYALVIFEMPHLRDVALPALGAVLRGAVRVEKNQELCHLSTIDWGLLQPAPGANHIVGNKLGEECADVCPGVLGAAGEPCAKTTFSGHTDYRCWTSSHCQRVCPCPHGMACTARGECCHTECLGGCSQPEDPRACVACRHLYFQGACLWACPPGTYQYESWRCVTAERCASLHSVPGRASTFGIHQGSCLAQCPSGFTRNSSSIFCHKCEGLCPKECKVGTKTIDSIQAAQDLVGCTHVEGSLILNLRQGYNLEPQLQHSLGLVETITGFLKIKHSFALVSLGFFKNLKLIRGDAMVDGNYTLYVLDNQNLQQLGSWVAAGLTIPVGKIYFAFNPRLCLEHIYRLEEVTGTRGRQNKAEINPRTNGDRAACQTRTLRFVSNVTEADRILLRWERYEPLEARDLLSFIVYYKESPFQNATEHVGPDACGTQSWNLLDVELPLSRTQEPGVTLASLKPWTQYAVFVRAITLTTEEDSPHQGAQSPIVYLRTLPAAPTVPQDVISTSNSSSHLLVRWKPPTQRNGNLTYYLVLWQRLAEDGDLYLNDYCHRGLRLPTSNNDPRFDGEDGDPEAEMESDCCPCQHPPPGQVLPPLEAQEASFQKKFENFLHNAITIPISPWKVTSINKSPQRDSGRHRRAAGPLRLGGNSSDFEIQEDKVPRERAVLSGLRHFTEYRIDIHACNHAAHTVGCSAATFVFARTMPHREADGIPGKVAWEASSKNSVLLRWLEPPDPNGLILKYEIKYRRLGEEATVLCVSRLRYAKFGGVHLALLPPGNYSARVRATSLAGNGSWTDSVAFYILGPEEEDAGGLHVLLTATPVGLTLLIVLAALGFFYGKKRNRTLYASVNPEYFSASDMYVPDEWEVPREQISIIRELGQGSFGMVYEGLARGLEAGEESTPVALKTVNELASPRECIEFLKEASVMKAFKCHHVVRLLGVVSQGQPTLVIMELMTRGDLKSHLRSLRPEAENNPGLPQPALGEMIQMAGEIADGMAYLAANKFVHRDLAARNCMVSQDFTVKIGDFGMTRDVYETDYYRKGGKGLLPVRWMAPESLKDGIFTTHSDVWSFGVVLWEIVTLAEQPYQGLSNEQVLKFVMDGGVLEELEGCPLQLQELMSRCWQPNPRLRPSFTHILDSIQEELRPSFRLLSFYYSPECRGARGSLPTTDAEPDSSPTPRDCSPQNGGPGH
T5 sequence (P49841 whole entry): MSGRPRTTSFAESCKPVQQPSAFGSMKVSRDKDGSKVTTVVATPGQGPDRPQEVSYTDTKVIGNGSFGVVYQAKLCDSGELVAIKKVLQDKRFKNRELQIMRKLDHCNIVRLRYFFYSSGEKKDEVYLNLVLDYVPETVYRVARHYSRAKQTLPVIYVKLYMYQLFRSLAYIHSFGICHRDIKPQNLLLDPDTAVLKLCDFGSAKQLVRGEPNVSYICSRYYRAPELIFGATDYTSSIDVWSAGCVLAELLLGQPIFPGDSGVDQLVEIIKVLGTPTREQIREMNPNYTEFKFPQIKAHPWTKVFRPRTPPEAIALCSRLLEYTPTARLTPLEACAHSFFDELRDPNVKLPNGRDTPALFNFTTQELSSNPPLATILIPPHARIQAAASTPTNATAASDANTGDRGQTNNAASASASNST
T8 sequence (P11309 whole entry): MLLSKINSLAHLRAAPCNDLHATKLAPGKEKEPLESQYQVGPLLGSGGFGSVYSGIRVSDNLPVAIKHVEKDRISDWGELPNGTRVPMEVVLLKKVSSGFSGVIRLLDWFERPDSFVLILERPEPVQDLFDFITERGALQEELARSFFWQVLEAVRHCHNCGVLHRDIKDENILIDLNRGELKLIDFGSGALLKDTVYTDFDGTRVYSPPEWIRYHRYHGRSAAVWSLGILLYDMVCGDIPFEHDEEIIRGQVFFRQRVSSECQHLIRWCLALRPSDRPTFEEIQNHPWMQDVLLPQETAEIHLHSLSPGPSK

Row | SMILES | remaining binding at 1 µM [1] | remaining binding at 1 µM [2] | remaining binding at 1 µM [3] | remaining binding at 1 µM [4] | remaining binding at 1 µM [5] | remaining binding at 1 µM [6] | remaining binding at 1 µM [7] | remaining binding at 1 µM [8] | remaining binding at 1 µM [9]
1 | Clc1cc(NCC2CC2)c2ncc(-c3ccc4[nH]ncc4c3)n2n1 [compound 2, 6-Chloro-N-(cyclopropylmethyl)-3-(1H-indazol-5-yl)imidazo[1,2-b]pyridazin-8-amine] | 96% | 73% | 94% | 98% | 99% | 79% | 85% | 100% | 100%
2 | O=C(CN1CCOCC1)N[C@H]1CC[C@H](Nc2cc(Cl)nn3c(-c4ccc5[nH]ncc5c4)cnc23)CC1 [compound 26] | 85% | 91% | 100% | 89% | 92% | 95% | 29% | 68% | 100%
3 | CN1CCC(CNc2cc(Cl)nn3c(-c4cc5nc(Nc6ccccc6)[nH]c5cc4F)cnc23)CC1 [compound 31, 6-Chloro-3-(6-fluoro-2-(phenylamino)-1H-benzo[d]imidazol-5-yl)-N-((1-methylpiperidin-4-yl)methyl)imidazo[1,2-b]pyridazin-8-amine] | 100% | 83% | 100% | 91% | 96% | 100% | 98% | 95% | 97%

Reference: article PMC6437697 (Journal of Medicinal Chemistry, 2019)
